{"source": "patent US20080090805A1", "about": "“CB-1 MODULATING COMPOUNDS AND THEIR USE” (ACADIA PHARMACEUTICALS INC., priority 2005, published 2008)", "key": {"[1]": {"tested_on": "C57 BK/6 mice", "assay": "Novel object recognition study", "assay_type": "in vivo", "settings": "test 1 or 2 hours after dosing, CP 55,940 0.3 mg/kg ip, SR141716A 1 mg/kg ip, Compound II 3 mg/kg ip, FIGS. 10, 11", "experimental": "Subjects: Subjects were male, C57 BK/6 mice purchased from Harlan Laboratories, weighing 15-20 g upon arrival. Animals were housed 8 per cage with food and water available ad libidum. Animals were housed on a 12 hr light cycle (lights on 6 am) for 4-7 days prior to behavioral testing.\nEquipment: Novel object recognition (NOR) was conducted in a novel environment consisting of a white plastic tub measuring 45.7×33.7×19 cm. Prior to each trial the bottom of the tub was covered with a piece of plastic lined bench top paper. There were two sets of identical objects chosen so that when given a opportunity to explore, mice would evenly divide exploration time between the objects. “A” objects were yellow, ceramic, 12-sided ramekins measuring 4 cm high×7 cm diameter. “B” objects were 8×8×4 cm stainless steel, 4-sided ramekins.\nProcedure: At the beginning of each test day, animals were placed in groups of 6 into clean cages. Testing was conducted in three phases: acclimation, sample and test. […] Each mouse was allowed to explore the chamber and the objects for 3 min., and the time spent exploring at each position was recorded. Directly sniffing or touching the object was recorded as exploration. […] The test sessions were recorded on video and scored by an observer blind to each subject's treatment condition. Any time spent directly sniffing or touching an object was counted as exploration. […]"}, "[2]": {"tested_on": "NSA mice", "assay": "Hypothermia study (block of CP 55,940-induced hypothermia)", "assay_type": "in vivo", "settings": "pretreatment 30 min prior to CP55,940, dose-dependent, FIG. 6", "experimental": ". […] Core body temperatures were then obtained at various time points following CP 55,940 administration. Core body temperature (to the nearest 0.1° C.) was obtained by rectal probe."}, "[3]": {"tested_on": "NSA mice", "assay": "Tail flick study (block of CP 55,940 antinociception)", "settings": "test compound ip 30 min prior to CP55,940, FIGS. 5A, 5B"}, "[4]": {"tested_on": "fasted Sprague-Dawley rats", "assay": "Acute feeding study", "assay_type": "in vivo", "settings": "1, 3, 10 mg/kg, dose-dependent, FIGS. 2-4", "experimental": "Male, Sprague-Dawley rats (90-120 g) served as subjects for these studies. Rats were fasted for a period of 16 hrs (water was always available). After the fasting period, test compounds were administered either intraperitoneally (ip) or orally (po). Immediately following compound administration, the rats were returned to their home cage. Following 30 min after compound administration, the rats were removed from their home cages and placed individually into clean cages with a pre-measured amount of food. Food weights were obtained (to the nearest 0.1 g) at various time points. Food consumption was monitored for a period of up to 2 hrs (i.e., 2.5 hr after test compound administration)."}, "[5]": {"tested_on": "obese Zucker rats", "assay": "Chronic feeding study", "assay_type": "in vivo", "settings": "1, 3, 10 mg/kg/day, dose-dependent, FIGS. 9A-9D", "experimental": "Male, obese Zucker rats (400-500 g) served as subjects for these studies. Rats were housed individually and had access to food and water ad libitum. Rats were allowed to acclimate to the vivarium for a period of 3 days, during which body weight and consumption of food and water was monitored. […] Daily food and water intakes were also monitored. Food and water bottles were weighed at the time body weights were recorded (i.e., 1350 hr). Vehicle or compound was administered daily for a period of up to 15 days."}, "[6]": {"tested_on": "rats with unilateral 6-OH dopamine lesions", "assay": "Rotation study (unilateral 6-hydroxy-dopamine lesion)", "assay_type": "in vivo", "settings": "6-OH dopamine lesioned rats; apomorphine 0.05, 0.16, 0.5 mg/kg ip; Compound II 3 mg/kg; FIGS. 14-16"}, "[7]": {"assay": "in vitro", "settings": "rat, microsomes, pH 7.4"}, "[8]": {"assay": "in vitro", "settings": "mouse, microsomes, pH 7.4"}, "[9]": {"settings": "microsomes"}, "[10]": {"target": "hERG (Homo sapiens, UniProt Q12809)", "sequence (Q12809 whole entry)": "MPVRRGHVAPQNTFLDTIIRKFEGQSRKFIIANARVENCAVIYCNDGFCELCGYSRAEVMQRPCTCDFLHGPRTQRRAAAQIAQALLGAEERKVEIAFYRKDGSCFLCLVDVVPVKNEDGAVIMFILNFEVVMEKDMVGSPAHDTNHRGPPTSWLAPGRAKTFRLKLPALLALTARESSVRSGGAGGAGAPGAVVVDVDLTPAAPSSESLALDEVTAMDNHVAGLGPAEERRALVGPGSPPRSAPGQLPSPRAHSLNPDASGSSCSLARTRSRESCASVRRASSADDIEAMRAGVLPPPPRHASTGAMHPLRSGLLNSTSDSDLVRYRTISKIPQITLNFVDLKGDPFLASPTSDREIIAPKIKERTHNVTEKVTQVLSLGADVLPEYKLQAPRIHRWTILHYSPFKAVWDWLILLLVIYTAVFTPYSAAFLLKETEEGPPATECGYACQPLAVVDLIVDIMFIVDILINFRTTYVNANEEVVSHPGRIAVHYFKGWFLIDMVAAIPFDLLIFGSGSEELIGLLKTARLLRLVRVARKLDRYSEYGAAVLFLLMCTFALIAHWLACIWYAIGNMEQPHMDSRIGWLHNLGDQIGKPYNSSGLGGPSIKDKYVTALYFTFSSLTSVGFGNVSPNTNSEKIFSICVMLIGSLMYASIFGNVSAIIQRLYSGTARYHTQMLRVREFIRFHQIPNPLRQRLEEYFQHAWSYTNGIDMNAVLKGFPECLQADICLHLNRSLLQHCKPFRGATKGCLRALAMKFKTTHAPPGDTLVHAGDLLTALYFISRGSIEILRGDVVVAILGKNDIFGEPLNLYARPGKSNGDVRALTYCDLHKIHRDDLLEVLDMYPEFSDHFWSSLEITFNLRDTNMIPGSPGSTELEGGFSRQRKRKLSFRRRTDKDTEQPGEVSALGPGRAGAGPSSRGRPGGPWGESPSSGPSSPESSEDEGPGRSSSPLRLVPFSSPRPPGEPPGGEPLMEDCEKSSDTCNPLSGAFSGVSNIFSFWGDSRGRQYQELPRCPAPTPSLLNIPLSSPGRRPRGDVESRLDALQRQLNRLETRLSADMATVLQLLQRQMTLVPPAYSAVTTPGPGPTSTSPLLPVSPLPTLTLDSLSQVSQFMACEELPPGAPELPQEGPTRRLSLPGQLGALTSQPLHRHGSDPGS", "assay": "in vitro", "settings": "pH 7.4"}}, "data": [{"molecule": "CCCCCCC(C)(C)c1ccc([C@@H]2C[C@H](O)CC[C@H]2CCCO)c(O)c1", "note": "[CP 55,940, reference compound]", "values": [{"measurement": "preference for the novel object (exploration ratio, discrimination index)", "setting": "[1]", "value": "showed a preference for the novel object after 1 hour of being dosed with the test compound but then returned back to baseline exploration rates after 2 hours"}]}, {"molecule": "O=C(NN1CCCCC1)c1ccc2c(c1)N=C(C1CCCCC1)c1ccccc1S2", "note": "[Compound I, 11-Cyclohexyl-dibenzo[b,f][1,4]thiazepine-8-carboxylic acid piperidin-1-ylamide]", "values": [{"measurement": "effect on CP 55,940-induced hypothermia (core body temperature)", "setting": "[2]", "value": "attenuates CP 55,940-induced hypothermia"}, {"measurement": "effect on antinociceptive actions of CP55,940 (tail flick latency)", "setting": "[3]", "value": "attenuates the antinociceptive actions of CP55,940"}, {"measurement": "cumulative food intake", "setting": "[4]", "value": "suppresses the cumulative food intake in fasted rats"}]}, {"molecule": "CCCCNC(=O)c1ccc2c(c1)N=C(c1ccc(Cl)cc1)c1ccccc1S2", "note": "[Compound II, N-(butyl)-11-(4-chlorophenyl)-dibenzo[b,f,][1,4]thiazepine-8-carboxamide]", "values": [{"measurement": "food and water intake", "setting": "[5]", "value": "attenuated the food and water intake of the rats"}, {"measurement": "contralateral rotations", "setting": "[6]", "value": "augments dopaminergic functions"}, {"measurement": "preference for the novel object (exploration ratio, discrimination index)", "setting": "[1]", "value": "showed a preference for the novel object"}]}, {"molecule": "CN1CCc2cccc3c2[C@H]1Cc1ccc(O)c(O)c1-3", "note": "[apomorphine, reference compound]", "values": [{"measurement": "contralateral rotations", "setting": "[6]", "value": "dose-dependently elicits contralateral rotations"}]}, {"molecule": "CCCCNC(=O)c1ccc2c(c1)N=C(c1ccc(Cl)cc1)c1ccc(Cl)cc1S2", "note": "[drawing 1732]", "values": [{"measurement": "microsomal CLint at 1 μM", "setting": "[7]", "value": 24, "unit": "µL/min/mg"}, {"measurement": "microsomal CLint at 1 μM", "setting": "[8]", "value": 29, "unit": "µL/min/mg"}, {"measurement": "Clearance Human", "setting": "[9]", "value": 0}]}, {"molecule": "O=C(NN1CCCCCC1)c1ccc2c(c1)N=C(c1cccc(F)c1)c1ccccc1S2", "note": "[drawing 1827]", "values": [{"measurement": "inhibition at 1 µM", "setting": "[10]", "value": 88, "unit": "%"}]}, {"molecule": "O=C(NN1CCCCC1)c1ccc2c(c1)N=C(c1ccc(Cl)s1)c1ccccc1S2", "note": "[drawing 1829]", "values": [{"measurement": "inhibition at 1 µM", "setting": "[10]", "value": 66, "unit": "%"}]}, {"molecule": "O=C(NC1CCC(F)(F)CC1)c1ccc2c(c1)N=C(c1cccc(Cl)c1)c1ccccc1S2", "note": "[drawing 1838]", "values": [{"measurement": "inhibition at 1 µM", "setting": "[10]", "value": 62, "unit": "%"}]}]}
